Experimental data reported in ChEMBL document CHEMBL1140941 (J Med Chem, 2009).
The source made the active and inactive calls. The calls are words filed in the database; no cut-off is given here.

How the values were obtained:
[1] = target: T1, Peroxisome proliferator-activated receptor alpha (Homo sapiens) (UniProt Q07869); test: Agonist activity at PPARalpha expressed in african green monkey CV1 cells co-expressing MH100 by luciferase reporter gene assay; assay type: functional, cell-based; conditions: CV-1
T1 sequence (whole entry): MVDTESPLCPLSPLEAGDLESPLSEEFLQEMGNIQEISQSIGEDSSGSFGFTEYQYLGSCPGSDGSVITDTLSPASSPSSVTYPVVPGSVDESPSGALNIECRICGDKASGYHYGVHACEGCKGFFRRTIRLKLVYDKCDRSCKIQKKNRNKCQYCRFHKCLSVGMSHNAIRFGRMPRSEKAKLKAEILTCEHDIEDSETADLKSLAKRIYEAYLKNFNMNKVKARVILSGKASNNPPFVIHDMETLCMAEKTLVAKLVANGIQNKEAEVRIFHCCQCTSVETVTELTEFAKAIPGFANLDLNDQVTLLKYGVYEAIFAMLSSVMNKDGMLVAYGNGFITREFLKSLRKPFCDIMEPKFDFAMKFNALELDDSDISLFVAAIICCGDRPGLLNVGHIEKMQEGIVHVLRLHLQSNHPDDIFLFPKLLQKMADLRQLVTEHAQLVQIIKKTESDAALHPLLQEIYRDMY

Mus musculus [2] = test: Reduction of plasma triglyceride level in C57BL/6 mouse at 10 mg/kg, po administered for 7 days measured after 3 hrs; assay type: ADME, organism-based; set-up: dose 10 mg/kg, route oral; conditions: in vivo
[3] = target: Estrogen receptor beta (Homo sapiens) (UniProt Q92731); test: Antagonist activity at gal-ERbeta expressed in african green monkey CV1 cells co-expressing MH100 by luciferase reporter gene assay; assay type: functional, cell-based; conditions: CV-1
[4] = target: T2, Bile acid receptor (Homo sapiens) (UniProt Q96RI1); test: Agonist activity at human FXR expressed in african green monkey CV1 cells co-expressing ECRE with RXR co-factor up to 10 uM by luciferase reporter gene assay relative to CDCA; assay type: functional, cell-based; conditions: CV-1
T2 sequence (whole entry): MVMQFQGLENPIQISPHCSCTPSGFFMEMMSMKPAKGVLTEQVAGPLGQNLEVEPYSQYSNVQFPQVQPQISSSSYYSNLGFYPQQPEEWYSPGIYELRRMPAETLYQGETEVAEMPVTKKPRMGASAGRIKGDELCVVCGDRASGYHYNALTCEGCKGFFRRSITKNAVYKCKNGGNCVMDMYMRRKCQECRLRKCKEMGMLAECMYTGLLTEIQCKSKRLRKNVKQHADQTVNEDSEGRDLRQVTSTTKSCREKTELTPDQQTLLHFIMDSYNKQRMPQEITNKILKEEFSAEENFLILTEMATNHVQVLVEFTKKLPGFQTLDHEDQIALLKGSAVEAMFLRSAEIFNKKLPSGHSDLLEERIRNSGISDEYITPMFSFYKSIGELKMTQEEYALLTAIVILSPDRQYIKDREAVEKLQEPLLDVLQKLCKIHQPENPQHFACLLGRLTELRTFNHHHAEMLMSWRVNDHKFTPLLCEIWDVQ

Mus musculus [5] = test: Reduction of plasma total cholesterol level in western diet-induced hyperlipidemia LDLR knockout mouse model at 1 mg/kg, po administered for 6 weeks; assay type: functional; set-up: scale not given: the % may be the effect or the level left
[6] = target: Steroid hormone receptor ERR2 (Homo sapiens) (UniProt O95718); test: Antagonist activity at ERRbeta expressed in african green monkey CV1 cells by luciferase reporter gene assay; assay type: functional, cell-based; conditions: CV-1
[7] = Tmax in CD rat at 3 mg/kg, po; assay type: ADME, organism-based; set-up: dose 3 mg/kg, route oral; conditions: in vivo
[8] = target: T3, Estrogen receptor (Homo sapiens) (UniProt P03372); test: Antagonist activity at gal-ERalpha expressed in african green monkey CV1 cells co-expressing MH100 at 10 uM by luciferase reporter gene assay; assay type: functional, cell-based; conditions: CV-1
T3 sequence (whole entry): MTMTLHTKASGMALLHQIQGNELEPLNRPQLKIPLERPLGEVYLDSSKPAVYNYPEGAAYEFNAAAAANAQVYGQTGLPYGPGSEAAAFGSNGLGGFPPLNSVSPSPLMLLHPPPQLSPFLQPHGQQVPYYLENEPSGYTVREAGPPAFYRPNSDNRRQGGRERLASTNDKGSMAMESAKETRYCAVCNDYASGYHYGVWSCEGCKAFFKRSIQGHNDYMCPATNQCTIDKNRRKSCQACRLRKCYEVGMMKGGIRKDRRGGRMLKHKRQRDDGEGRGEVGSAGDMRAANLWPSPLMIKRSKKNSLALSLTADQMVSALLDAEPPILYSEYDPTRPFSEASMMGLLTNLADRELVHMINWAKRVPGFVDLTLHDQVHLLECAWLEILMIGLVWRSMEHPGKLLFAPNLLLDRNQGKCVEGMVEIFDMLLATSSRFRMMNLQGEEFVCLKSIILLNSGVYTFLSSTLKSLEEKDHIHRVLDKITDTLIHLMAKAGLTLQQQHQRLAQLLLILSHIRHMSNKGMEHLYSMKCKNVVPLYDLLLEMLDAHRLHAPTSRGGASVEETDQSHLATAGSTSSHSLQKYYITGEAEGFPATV

[9] = target: T4, Mineralocorticoid receptor (Homo sapiens) (UniProt P08235); test: Agonist activity at gal-MR expressed in african green monkey CV1 cells co-expressing MH100 up to 10 uM by luciferase reporter gene assay relative to control; assay type: functional, cell-based; conditions: CV-1
T4 sequence (whole entry): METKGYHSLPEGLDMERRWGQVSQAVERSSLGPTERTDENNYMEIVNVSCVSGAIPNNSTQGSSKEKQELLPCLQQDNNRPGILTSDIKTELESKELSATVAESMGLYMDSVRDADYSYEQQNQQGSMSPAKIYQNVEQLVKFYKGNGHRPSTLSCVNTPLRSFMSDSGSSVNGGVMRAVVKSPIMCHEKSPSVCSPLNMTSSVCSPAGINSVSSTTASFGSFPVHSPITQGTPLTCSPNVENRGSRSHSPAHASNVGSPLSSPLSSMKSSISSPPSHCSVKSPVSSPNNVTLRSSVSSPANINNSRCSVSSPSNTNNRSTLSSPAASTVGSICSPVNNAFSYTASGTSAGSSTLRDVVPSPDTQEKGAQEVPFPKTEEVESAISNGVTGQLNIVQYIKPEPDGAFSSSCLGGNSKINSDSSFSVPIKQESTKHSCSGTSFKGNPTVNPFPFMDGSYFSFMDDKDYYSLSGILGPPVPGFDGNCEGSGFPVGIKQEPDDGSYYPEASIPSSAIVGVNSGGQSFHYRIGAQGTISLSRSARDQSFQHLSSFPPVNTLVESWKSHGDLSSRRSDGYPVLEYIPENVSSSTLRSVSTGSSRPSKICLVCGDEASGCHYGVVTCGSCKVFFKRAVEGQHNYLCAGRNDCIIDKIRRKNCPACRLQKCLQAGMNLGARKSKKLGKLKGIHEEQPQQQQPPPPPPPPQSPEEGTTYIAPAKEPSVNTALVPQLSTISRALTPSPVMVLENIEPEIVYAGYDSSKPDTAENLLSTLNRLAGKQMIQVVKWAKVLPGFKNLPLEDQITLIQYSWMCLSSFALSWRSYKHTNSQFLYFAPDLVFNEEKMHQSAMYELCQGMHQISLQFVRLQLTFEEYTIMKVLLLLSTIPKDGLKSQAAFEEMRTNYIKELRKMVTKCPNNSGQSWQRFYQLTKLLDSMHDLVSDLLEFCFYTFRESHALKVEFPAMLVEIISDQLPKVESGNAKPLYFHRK

Sequence of Steroid hormone receptor ERR2 (Homo sapiens) (O95718 whole entry): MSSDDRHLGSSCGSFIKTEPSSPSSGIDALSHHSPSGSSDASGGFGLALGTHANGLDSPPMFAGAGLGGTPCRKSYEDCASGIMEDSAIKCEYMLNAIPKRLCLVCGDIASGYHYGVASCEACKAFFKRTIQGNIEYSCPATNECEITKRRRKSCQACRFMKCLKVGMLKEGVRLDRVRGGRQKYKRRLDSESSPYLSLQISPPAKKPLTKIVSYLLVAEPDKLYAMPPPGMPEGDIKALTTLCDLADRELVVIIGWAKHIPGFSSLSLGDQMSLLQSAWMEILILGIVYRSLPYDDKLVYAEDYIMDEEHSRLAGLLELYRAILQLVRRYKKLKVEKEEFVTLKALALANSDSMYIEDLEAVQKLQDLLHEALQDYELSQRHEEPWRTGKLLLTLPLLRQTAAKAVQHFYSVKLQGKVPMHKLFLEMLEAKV
Sequence of Estrogen receptor beta (Homo sapiens) (Q92731 whole entry): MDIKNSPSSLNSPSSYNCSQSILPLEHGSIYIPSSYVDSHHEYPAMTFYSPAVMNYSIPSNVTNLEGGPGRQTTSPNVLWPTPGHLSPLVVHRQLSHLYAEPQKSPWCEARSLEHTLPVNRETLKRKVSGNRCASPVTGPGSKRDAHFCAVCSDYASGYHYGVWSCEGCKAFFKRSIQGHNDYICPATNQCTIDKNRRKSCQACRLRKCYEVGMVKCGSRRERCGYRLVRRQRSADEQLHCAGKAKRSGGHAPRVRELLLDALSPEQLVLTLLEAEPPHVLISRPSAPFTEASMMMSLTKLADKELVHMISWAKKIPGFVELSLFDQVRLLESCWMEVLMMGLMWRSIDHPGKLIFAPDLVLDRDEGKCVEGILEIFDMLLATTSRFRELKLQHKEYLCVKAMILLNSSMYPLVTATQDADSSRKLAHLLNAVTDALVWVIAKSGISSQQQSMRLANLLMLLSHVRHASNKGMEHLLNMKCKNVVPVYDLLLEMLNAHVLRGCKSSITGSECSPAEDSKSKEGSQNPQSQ

Activity [1]: inactive | Activity (Mus musculus [2]): 62 mg/dL | Activity [3]: inactive | Efficacy [4]: 149% | Activity [6]: inactive | Tmax [7]: 10 h | inhibition [8]: 24% | Activity [9]: inactive
Structure (SMILES): CC(C)OC(=O)C1=CN(C(=O)c2ccc(F)c(F)c2)CC(C)(C)c2c1[nH]c1ccccc21 [TUROFEXORATE ISOPROPYL]
Activity (Mus musculus [5]): 23%
